Assay results from patent US20240277851A1, “siRNA DELIVERY VECTOR” (COUNCIL OF SCIENTIFIC & INDUSTRIAL RESEARCH, priority 2021, published 2024).

Assays:
[1] = tested on: DU-145 (prostate) cancer cells; assay: Sulforhodamine B cytotoxicity, DU-145; type: cell-based; settings: DU-145, 24 h
Method: (§1) Cytotoxicity of Mito-Esc on different cancer cell lines HeLa (cervical), HepG2 (liver), MCF-7 (ER+ve breast), A549 (lung), DU-145 (prostate) cancer cells and MCF-10A (normal mammary epithelial cells) were determined by treating with Mito-Esc (0.5-100 μM) for 24 h and cell viability was measured by Sulforhodamine B assay.

[2] = Size and surface charge of Mito-Esc nanoparticles (DLS, zeta potential); type: physicochemical; settings: aqueous solution (1% EtOH)
Method: The size (hydrodynamic diameter) and the surface charge (zeta potentials) of a Mito-Esc nanoparticle were measured by photon correlation spectroscopy and the electrophoretic mobility on a Zetasizer 3000HSA (Malvern, UK). The size was measured in deionized water with a sample refractive index of 1.33, a viscosity of 0.88 cP and a temperature of 25° C. The size was measured in triplicate. The zeta potential was measured using the following parameters: viscosity, 0.88 cP; dielectric constant, 78.5, and temperature, 25° C.
(§2) The self-assembling properties of Mito-Esc were explored. The particle size of an aqueous solution (1% EtOH) of Mito-Esc was measured using Dynamic light scattering (DLS). Mito-Esc formed nanosized particles of size 166±30 nm and surface charge of 33±0.4 mV (FIG. 2A). The size and morphology of self-assembled nanoparticles of Mito-Esc was investigated by scanning and by transmission electron microscopy respectively. Mito-Esc formed spherical shaped nanoparticles of <200 nm (FIGS. 2B & 2C).

[3] = Scanning and transmission electron microscopy of nanoparticles; type: physicochemical; settings: spherical shaped nanoparticles
Method: Transmission electron microscopy studies were performed on a Tecnai T12 microscope (FEI) at 120 kV, and images were taken using an SIS CCD camera; Samples were negatively stained with ammonium molybdate on 200 or 400 mesh carbon-coated copper grids (Ted Pella, Inc.). Before recording micrographs, the grids were air dried.
Field emission scanning electron microscopic (FESEM) analysis of a Mito-Esc nanoparticle was performed on a Carl Zeiss SIGMA HD field-emission scanning electron microscope.
as §2

[4] = tested on: MDA-MB-231 cells in mammary fat pad; assay: In-vivo orthotopic MDA-MB-231 tumor model; settings: SCID mice, i.p. 3 and 6 mg/kg for two weeks
Method: Inoculation of MDA-MB-231 cells into mammary fat pad of SCID mice: 6-week-old female SCID mice were used for the experiment. Initially, 10 nM Qtracker labeling solution (Qtracker Cell Labeling Kit, Invitrogen Q25071MP) was prepared by pre-mixing 10 μL each of Component A and Component B in a 1.5 mL microcentrifuge tube and incubated for 5 minutes at room temperature. This mixture was added to 0.2 mL of fresh complete growth medium and vortexed for 30 seconds and added to a 75-cm2 tissue culture flask containing MDA-MB-231 cells and incubated in a 37° C., 5% CO2 incubator overnight. Sub-confluent labeled cells were harvested and counted.
Cells (1×10^6) were suspended in 0.1 ml of serum free medium. To this 0.1 ml of matrigel was added and gently mixed to get a uniform cell suspension. The SCID mice were anesthetized with ketamine/xylazine cocktail (50 μL/20 g mice) and each mouse was implanted with above mentioned 1×10^6 Q-Tracker labelled MDA-MB-231 cells into the 4th pair of mammary fat pad orthotopically and sutured the fat pad after the inoculation of cells. The incision site was dressed with povidone-iodine to prevent infection every day until the incision healed. Mice were checked to see development of tumors and treatment began once the tumors reached a volume of ≥300 mm^3. […] On the day of sacrifice, tumor volumes were measured using Vernier calipers. […]

[5] = tested on: HepG2 (liver) cancer cells; assay: Sulforhodamine B cytotoxicity, HepG2; type: cell-based; settings: HepG2, 24 h
Method: as §1

A549 (lung) cancer cells = assay: Sulforhodamine B cytotoxicity, A549; type: cell-based; settings: A549, 24 h
Method: as §1

[6] = tested on: HeLa (cervical) cancer cells; assay: Sulforhodamine B cytotoxicity, HeLa; type: cell-based; settings: 24 h
Method: as §1

[7] = tested on: MDA-MB-231 breast cancer cells; assay: Trypan blue dye exclusion cell viability, MDA-MB-231; type: cell-based; settings: MDA-MB-231, 24 h and 48 h, FIG. 1A
Method: FIG. 1: Mito-Esc dose- and time-dependently induces breast cancer cell death without affecting normal cell viability. (A) MDA-MB-231 breast cancer cells were treated with various concentrations of Mito-Esc (1.25-7.5 μM). Cell viability was measured by trypan blue dye exclusion assay at 24 h and 48 h. (B) Same as A, except that cells were treated with parent Esc (5-50 μM). (C) Same as A, except that MCF10A (normal mammary epithelial) cells were treated with Mito-Esc (5-50 μM).
MDA-MB-231 (a Triple negative breast cancer cell line, ATCC) and MCF-10A cells (normal mammary epithelial cells, ATCC) were grown in Dulbecco's Modified Eagle's medium (DMEM) containing 10% FBS, 1% (v/v) Sodium Pyruvate (100 mM), Sodium bicarbonate (26 mM), L-glutamine (4 mM), penicillin (100 units/ml), and streptomycin (100 μg/ml). Cells were maintained in an incubator at 37° C. in a humidified atmosphere of 5% CO2 and 95% air.
To evaluate cytotoxicity of the Mito-Esc or Mito-Esc lipoplexes with siMnSOD, a trypan blue dye exclusion assay was used. Briefly, cells were seeded in a 12-well plate at a density of 3×10^4 cells per well and cultured overnight before transfection. […] The cell suspension (10 μl) was mixed with an equal amount of trypan blue and counted using an automated cell counter (Countess, Life Technologies). […]

MDA-MB-231 cells = assay: Intracellular delivery of Cy-5 siRNA by confocal imaging, MDA-MB-231; type: cell-based; settings: MDA-MB-231, Cy-5 siRNA 40 nM, 24 h
Method: (§3) FIG. 5: Detection of intracellular delivery of Cy-5 siRNA by Mito-Esc using confocal imaging. MDA-MB-231 cells were transfected with Cy-5 labelled siRNA (40 nM) with indicated delivery systems for 24 h. Transfection efficacy was evaluated using Confocal Microscopy. Cy-5 fluorescence in the cytosol is shown in blue color (Scale bar 10X). Briefly, MDA-MB-231 cells were seeded on a coverslip in 12-well plates at a density of 3×10^4 cells per well in 1 mL complete DMEM and cultured for 12 h. Fluorescent (Cy-5) siRNA was complexed either with lipofectamine-2000 (positive control) or with Mito-Esc (2.5 μM) or parent esculetin (2.5 μM) or with different cationic lipids in serum free DMEM medium for 30 min before addition into the plates. These lipoplexes were added to the cells and incubated for 6 h. After that, cells were washed twice with PBS and fixed with 4% paraformaldehyde for 15 min. Finally, slides were mounted and the cells were imaged using a confocal microscope. Florescent labeled siRNA with Mito-Esc lipoplexes were prepared as described above and incubated with MDA-MB-231 cells for 24 h. The cells were stained by DAPI to stain the nucleus. The cells were mounted and observed under confocal microscope (Olympus, Tokyo, Japan).

MCF-10A cells = assay: Intracellular delivery of Cy-5 siRNA by confocal imaging, MCF-10A; type: cell-based
Method: FIG. 6: Comparison of intracellular delivery of Cy-5 siRNA using confocal imaging. MCF-10A cells were transfected with Cy-5 labelled siRNA using different delivery mechanisms. Transfection efficacy was evaluated using Confocal Microscopy. Cy-5 fluorescence in the cytosol is shown in blue.
as §3, with “Briefly,” for “FIG. 5: Detection of intracellular delivery of Cy-5 siRNA by Mito-Esc using confocal imaging. MDA-MB-231 cells were transfected with Cy-5 labelled siRNA (40 nM) with indicated delivery systems for 24 h. Transfection efficacy was evaluated using Confocal Microscopy. Cy-5 fluorescence in the cytosol is shown in blue color (Scale bar 10X). Briefly,”

[8] = tested on: MCF-7 (ER+ve breast) cancer cells; assay: Sulforhodamine B cytotoxicity, MCF-7; type: cell-based; settings: MCF-7, 24 h
Method: as §1

[9] = tested on: MCF-10A (normal mammary epithelial cells); assay: Sulforhodamine B cytotoxicity, MCF-10A; type: cell-based; settings: 24 h
Method: as §1

MnSOD = MnSOD gene silencing by immunoblotting; type: cell-based; settings: MDA-MB-231, siMnSOD 40 nM, 48 h
Method: FIG. 4: Mito-Esc/siMnSOD complex by depleting MnSOD levels exacerbates Mito-Esc-induced breast cancer cell death. (A) MDA-MB-231 cells were incubated either with Mito-Esc/siMnSOD (40 nM) complex or with lipofectamine-2000/siMnSOD complex for 48 h and cell viability was measured by trypan blue dye exclusion assay. (B) MDA-MB-231 cells were transfected with siMnSOD (40 nM) with indicated delivery systems for 48 h and MnSOD protein levels were measured by immunoblotting. Parenthesis indicates the relative expression of MnSOD normalized to GAPDH (loading control).
At the end of the treatments, cell pellets were lysed in a RIPA buffer containing protease inhibitor cocktail, phosphatase inhibitor cocktail-2, 3. Proteins were resolved by SDS-PAGE and blotted onto a nitrocellulose membrane and blocked with 5% bovine serum albumin, washed, and incubated with primary antibodies (1:1000) over night at 4° C. The membranes were then washed and incubated for 1 h with anti-rabbit/mouse IgG horseradish peroxidase linked secondary antibodies (1:5000). ECL reagent (Amersham GE) was applied on the membrane prior to developing with a chemiluminescent system (Bio-Rad).
Cells were cultured in 12-well plates at a density of 3×10^4 cells per well (containing a glass coverslip the day before use). […]

siRNA = assay: Agarose gel electrophoresis retardation assay (siRNA binding); settings: earlier findings, FIG. 2D; ratios 1:1 to 7:1
Method: Gel electrophoresis was performed with agarose gel (1.5% w/v) in tris-acetate-EDTA buffer (40 mM) with one drop of ethidium bromide added (concentration of EtBr stock solution: 0.625 mg/ml in H2O), at 100 V for 30 min. The siRNA lipoplexes were prepared by complexing siRNA with Mito-Esc, Mito-isoscopoletin and octyl TPP cation at described P^+/P^− ratios. The samples were incubated for 30 min at room temperature prior to addition into a well. The siRNA bands were visualized under UV illumination at 365 nm.
Mito-Esc nanoparticle solutions were prepared at various concentrations according to the desired final P+:P− charge ratio. Twenty μL solution of the Mito-Esc/siRNA complex was prepared to maintain a constant amount of siRNA in each solution (1 μg in 10 μL), and varying the amount of Mito-Esc according to the P+:P− charge ratio. The prepared mixtures were gently vortexed for 5 min. and incubated for 30 min at room temperature for complex formation.
The efficiency of Mito-Esc to bind siRNA was checked by agarose gel electrophoresis. Also, in order to assess the importance of hydrogen bonding in forming the stable siRNA complexes, Mito-isoscopoletin was synthesized by protecting the dihydroxy group with methyl group. Octyl TPP cation was used as a negative control.

O=c1cc(CCCCCCCC[P+](c2ccccc2)(c2ccccc2)c2ccccc2)c2cc(O)c(O)cc2o1 [Mito-Esc, (8-(6,7-dihydroxy-2-oxo-2H-chromen-4-yl)octyl) triphenylphosphonium]
IC50 [1]: 15.5 µM | particle size (DLS) [2]: 166±30 nm | surface charge [2]: 33±0.4 mV | nanoparticle size by SEM/TEM [3]: < 200 nm | breast cancer progression (tumor volume, weight) [4]: regress breast cancer progression | IC50 [5]: 10 µM | IC50 (A549 (lung) cancer cells): 1.8 µM | IC50 [6]: 4.9 µM | concentrations causing dose-dependent cell death [7]: 1.5 to 7.5 µM | intracellular delivery of Cy-5 siRNA (MDA-MB-231 cells): significantly caused the intracellular delivery of Cy-5 siRNA | efficiency of siRNA delivery (MCF-10A cells): lower than Lipofectamine-2000 | IC50 [8]: 4.8 µM | IC50 [9]: > 100 µM

O=c1ccc2cc(O)c(O)cc2o1 [parent esculetin, esculetin]
MnSOD protein levels (MnSOD): neither parent esculetin nor octyl TPP cation complexes were able to decrease MnSOD expression | intracellular delivery of Cy-5 siRNA (MDA-MB-231 cells): failed to deliver the Cy-5 siRNA intracellularly

(8-(6,7-dimethoxy-2-oxo-2H-chromen-4-yl)octyl)triphenylphosphonium [Mito-isoscopoletin]
P+/P− charge ratios at which siRNA is bound (migration retarded) (siRNA): did not bind the siRNA | intracellular delivery of Cy-5 siRNA (MDA-MB-231 cells): failed to deliver the Cy-5 siRNA intracellularly
